Source: patent publication US10363251B2, “(+)-morphinans as antagonists of toll-like receptor 9 and therapeutic uses thereof” (Mallinckrodt LLC, priority 2009, dated 2019)

Assays:
[1] = biological target: T1, TLR8 (Homo sapiens, UniProt Q9NR97); assay: TLR8 antagonist screening, NF-κB-inducible SEAP reporter in HEK293 cells; type: cell-based; conditions: for Average % Inhibition at TLR8: 10 μM, stimulated with CL075 at 1 μg/ml
T1 construct: expressed in transfected cells; host or cells: HEK293
T1 sequence (Q9NR97 27-1041): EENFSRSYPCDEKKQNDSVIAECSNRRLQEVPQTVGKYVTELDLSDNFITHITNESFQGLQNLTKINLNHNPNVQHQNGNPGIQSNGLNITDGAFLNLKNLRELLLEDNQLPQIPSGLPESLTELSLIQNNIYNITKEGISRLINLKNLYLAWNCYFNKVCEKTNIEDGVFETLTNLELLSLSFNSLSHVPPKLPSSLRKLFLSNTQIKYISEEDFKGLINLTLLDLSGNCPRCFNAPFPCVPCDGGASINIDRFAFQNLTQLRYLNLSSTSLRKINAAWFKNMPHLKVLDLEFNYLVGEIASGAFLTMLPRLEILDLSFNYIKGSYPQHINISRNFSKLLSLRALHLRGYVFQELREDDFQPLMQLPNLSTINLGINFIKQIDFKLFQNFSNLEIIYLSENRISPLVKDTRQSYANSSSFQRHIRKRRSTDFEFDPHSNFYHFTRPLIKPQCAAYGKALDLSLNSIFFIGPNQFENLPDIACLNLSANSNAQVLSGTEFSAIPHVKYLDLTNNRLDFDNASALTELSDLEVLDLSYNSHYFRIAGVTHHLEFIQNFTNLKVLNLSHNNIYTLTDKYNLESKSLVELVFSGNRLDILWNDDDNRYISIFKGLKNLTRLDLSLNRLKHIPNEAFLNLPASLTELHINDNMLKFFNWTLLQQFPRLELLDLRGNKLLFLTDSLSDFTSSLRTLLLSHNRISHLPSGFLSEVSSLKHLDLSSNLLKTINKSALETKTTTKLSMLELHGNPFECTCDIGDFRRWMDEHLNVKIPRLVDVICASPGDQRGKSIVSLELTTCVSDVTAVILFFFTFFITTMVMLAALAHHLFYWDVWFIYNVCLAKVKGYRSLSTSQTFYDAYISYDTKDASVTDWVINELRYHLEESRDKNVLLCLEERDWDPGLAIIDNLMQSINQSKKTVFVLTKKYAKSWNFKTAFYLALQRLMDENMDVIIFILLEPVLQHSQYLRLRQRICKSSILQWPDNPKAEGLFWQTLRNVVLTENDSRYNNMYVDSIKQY
Description: (§1) Stimulation of TLRs 2, 3, 4, 5, 7, 8, and 9 was determined by assessing activation of the transcription factor NF-κB in HEK293 cells that were engineered to express the corresponding receptors. Assessment of TLR stimulation was based on the use of an NF-κB-inducible secreted alkaline phosphatase (SEAP) reporter system in which the SEAP reporter was under the control of a promoter inducible by NF-κB. Thus, the degree of activation of TLRs can be indirectly quantified spectrophotometrically by measuring the amount of the SEAP reporter that is produced.
(§2) The appropriate TLR-expressing cells were plated in Growth Medium in a 96-well plate (25,000-50,000 cells/well). The cells were stimulated with the appropriate positive control ligand or no ligand was added (negative control). The positive control ligands were: HKLM was used to stimulate TLR2; poly(I:C) was used to stimulate TLR3; LPS was used to stimulate TLR4; Flagellin was used to stimulate TLR5; CL097 was used to stimulate TLR7; CL075 was used to stimulate TLR8; CpG oligodeoxynucleotide (ODN) 2006 was used to stimulate TLR9. To test whether (+)-morphinans could block that activation of the TLR, the cells were pretreated with an antagonist for 30 minutes prior to addition of the positive control ligand. […] After a 16-20 hr incubation period at 37° C. in a CO2 incubator, 20 μL of the cell culture supernatant was added to 180 μL of QUANTI-Blue™ Media (InvivoGen, San Diego, Calif.), and the resulting solutions were incubated at 37° C. for an additional 1-3 hours according to the manufacturer's instructions. The OD's of the samples were then read at 650 nm on a Beckman Coulter AD 340C Absorbance Detector.

[2] = biological target: T2, TLR7 (Homo sapiens, UniProt Q9NYK1); assay: TLR7 antagonist screening, NF-κB-inducible SEAP reporter in HEK293 cells; type: cell-based; conditions: for Average % Inhibition at TLR7: 10 μM, stimulated with CL097 at 1 μg/ml
T2 construct: expressed in transfected cells; host or cells: HEK293
T2 sequence (Q9NYK1 27-1049): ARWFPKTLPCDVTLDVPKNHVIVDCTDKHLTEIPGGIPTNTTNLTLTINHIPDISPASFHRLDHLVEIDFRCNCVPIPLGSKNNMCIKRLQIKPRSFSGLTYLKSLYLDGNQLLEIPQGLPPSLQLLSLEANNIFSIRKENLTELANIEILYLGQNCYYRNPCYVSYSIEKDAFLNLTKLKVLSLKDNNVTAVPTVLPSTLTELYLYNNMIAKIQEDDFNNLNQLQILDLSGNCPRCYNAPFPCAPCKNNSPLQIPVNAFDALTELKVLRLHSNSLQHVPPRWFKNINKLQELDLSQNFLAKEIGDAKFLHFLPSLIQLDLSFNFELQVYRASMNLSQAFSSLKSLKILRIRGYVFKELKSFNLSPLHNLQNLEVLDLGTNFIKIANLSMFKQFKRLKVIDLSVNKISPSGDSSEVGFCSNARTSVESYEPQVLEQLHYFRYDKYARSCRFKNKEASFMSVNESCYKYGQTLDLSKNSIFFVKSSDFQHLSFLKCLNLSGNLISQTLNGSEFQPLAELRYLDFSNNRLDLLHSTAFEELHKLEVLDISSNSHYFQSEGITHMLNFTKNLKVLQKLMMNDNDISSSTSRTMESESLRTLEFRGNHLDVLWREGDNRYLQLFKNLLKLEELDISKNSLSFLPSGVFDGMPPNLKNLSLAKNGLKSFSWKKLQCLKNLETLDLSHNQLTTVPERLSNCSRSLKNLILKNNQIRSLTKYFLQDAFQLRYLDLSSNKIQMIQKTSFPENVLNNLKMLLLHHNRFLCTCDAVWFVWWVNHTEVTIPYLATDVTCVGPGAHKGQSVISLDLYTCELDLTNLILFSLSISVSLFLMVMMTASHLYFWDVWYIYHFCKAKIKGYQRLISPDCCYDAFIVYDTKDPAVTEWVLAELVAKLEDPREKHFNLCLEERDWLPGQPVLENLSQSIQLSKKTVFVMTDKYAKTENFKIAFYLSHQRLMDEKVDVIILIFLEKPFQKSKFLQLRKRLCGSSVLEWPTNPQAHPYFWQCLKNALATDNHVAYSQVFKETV
Description: as §1, §2

Compound | Average % Inhibition at TLR8 [1] [%] | Average % Inhibition at TLR7 [2] [%] | inhibition at 10 µM ([1]; HEK293, stimulated with CL075 at 1 μg/ml) [%] | inhibition at 10 µM ([2]; HEK293, stimulated with CL097 at 1 μg/ml) [%]
C=CCN1CC[C@]23c4c5ccc(O)c4O[C@H]2C(=O)CC[C@]3(O)[C@H]1C5 [(+)-Naloxone, (+)-naloxone] | 24 | 18 | – | –
COc1ccc2c(c1O)[C@@]13CCN(C)[C@@H](C2)[C@H]1CC(OC)C(=O)C3 (stereo partly drawn) [Dihydrosinomenine, dihydrosinomenine] | 21 | 11 | – | –
COC1=C[C@@H]2[C@@H]3Cc4ccc(OC)c(O)c4[C@]2(CCN3C)CC1=O [Sinomenine, sinomenine] | – | – | 20 | 20
